Where a name gives a salt, the structure may show the parent alone.
Assay: Stability studies of dry granulation tablet (HPLC, XRPD)
Assay type: physicochemical
Conditions: intragranular blend, milled granules, final blend of Formulation 1 (FIG. 4)

form change by XRPD during processing: no form change
Compound: c1cn2cc(-c3ccc4cn[nH]c4c3)nc(Nc3ccc(N4CCOCC4)cc3)c2n1 [bis-mesylate salt of Formula IA]

Source: patent publication US9918939B2, “Formulation of Syk inhibitors” (Gilead Connecticut, Inc., priority 2013, dated 2018)
